Measured values taken from ChEMBL document CHEMBL1275409, “Antimicrobial-resistant pathogens in intensive care units in Canada: results of the Canadian National Intensive Care Unit (CAN-ICU) study, 2005-2006” (2008).

Key:
Format in all cases: functional
[1] = system: Staphylococcus aureus; assay: Antimicrobial activity against methicillin-susceptible Staphylococcus aureus isolated from ICU patient respiratory tract assessed as resistant isolates by broth microdilution method
[2] = system: Staphylococcus epidermidis; assay: Antimicrobial activity against methicillin-resistant Staphylococcus epidermidis isolated from ICU patient urine assessed as resistant isolates by broth microdilution method
[3] = system: Enterococcus sp.; assay: Antimicrobial activity against vancomycin-resistant Enterococcus sp. isolated from ICU patient urine assessed as resistant isolates by broth microdilution method
[4] = system: Staphylococcus epidermidis; assay: Antimicrobial activity against methicillin-resistant Staphylococcus epidermidis isolated from ICU patient wound assessed as resistant isolates by broth microdilution method
[5] = system: Staphylococcus aureus; assay: Antimicrobial activity against methicillin-resistant Staphylococcus aureus isolated from ICU patient urine assessed as resistant isolates by broth microdilution method
[6] = system: Staphylococcus aureus; assay: Antimicrobial activity against methicillin-resistant Staphylococcus aureus isolated from ICU patient respiratory tract assessed as resistant isolates by broth microdilution method
[7] = system: Enterococcus sp.; assay: Antimicrobial activity against vancomycin-resistant Enterococcus sp. isolated from ICU patient respiratory tract assessed as resistant isolates by broth microdilution method
[8] = system: Enterococcus sp.; assay: Antimicrobial activity against vancomycin-resistant Enterococcus sp. isolated from ICU patient wound assessed as resistant isolates by broth microdilution method
[9] = system: Staphylococcus aureus; assay: Antimicrobial activity against methicillin-susceptible Staphylococcus aureus isolated from ICU patient blood assessed as resistant isolates by broth microdilution method
[10] = system: Enterococcus sp.; assay: Antimicrobial activity against vancomycin-resistant Enterococcus sp. isolated from ICU patient blood assessed as resistant isolates by broth microdilution method
[11] = system: Staphylococcus aureus; assay: Antimicrobial activity against methicillin-susceptible Staphylococcus aureus isolated from ICU patient wound assessed as resistant isolates by broth microdilution method
[12] = system: Staphylococcus epidermidis; assay: Antimicrobial activity against methicillin-resistant Staphylococcus epidermidis isolated from ICU patient blood assessed as resistant isolates by broth microdilution method
[13] = system: Staphylococcus epidermidis; assay: Antimicrobial activity against methicillin-susceptible Staphylococcus epidermidis isolated from ICU patient urine assessed as resistant isolates by broth microdilution method
[14] = system: Enterococcus sp.; assay: Antimicrobial activity against vancomycin-resistant Enterococcus sp. assessed as resistant isolates by broth microdilution method
[15] = system: Staphylococcus epidermidis; assay: Antimicrobial activity against methicillin-susceptible Staphylococcus epidermidis assessed as resistant isolates by broth microdilution method
[16] = system: Staphylococcus epidermidis; assay: Antimicrobial activity against methicillin-resistant Staphylococcus epidermidis assessed as resistant isolates by broth microdilution method
[17] = system: Staphylococcus aureus; assay: Antimicrobial activity against methicillin-susceptible Staphylococcus aureus assessed as resistant isolates by broth microdilution method
[18] = system: Staphylococcus aureus; assay: Antimicrobial activity against methicillin-resistant Staphylococcus aureus isolated from ICU patient blood assessed as resistant isolates by broth microdilution method
[19] = system: Staphylococcus aureus; assay: Antimicrobial activity against methicillin-resistant Staphylococcus aureus isolated from ICU patient wound assessed as resistant isolates by broth microdilution method
[20] = system: Staphylococcus aureus; assay: Antimicrobial activity against methicillin-susceptible Staphylococcus aureus isolated from ICU patient urine assessed as resistant isolates by broth microdilution method
[21] = system: Staphylococcus epidermidis; assay: Antimicrobial activity against methicillin-susceptible Staphylococcus epidermidis isolated from ICU patient wound assessed as resistant isolates by broth microdilution method
[22] = system: Staphylococcus aureus; assay: Antimicrobial activity against methicillin-resistant Staphylococcus aureus assessed as resistant isolates by broth microdilution method
[23] = system: Staphylococcus epidermidis; assay: Antimicrobial activity against methicillin-susceptible Staphylococcus epidermidis isolated from ICU patient blood assessed as resistant isolates by broth microdilution method
[24] = system: Escherichia coli; assay: Antimicrobial activity against CTX-M ESBL producing Escherichia coli isolated from ICU patient wound assessed as resistant isolates by broth microdilution method
[25] = system: Escherichia coli; assay: Antimicrobial activity against CTX-M ESBL producing Escherichia coli isolated from ICU patient urine assessed as resistant isolates by broth microdilution method
[26] = system: Escherichia coli; assay: Antimicrobial activity against CTX-M ESBL producing Escherichia coli isolated from ICU patient blood assessed as resistant isolates by broth microdilution method
[27] = system: Escherichia coli; assay: Antimicrobial activity against CTX-M ESBL producing Escherichia coli assessed as resistant isolates by broth microdilution method
[28] = system: Pseudomonas aeruginosa; assay: Antimicrobial activity against carbapenem-resistant Pseudomonas aeruginosa isolated from ICU patient wound assessed as resistant isolates by broth microdilution method
[29] = system: Pseudomonas aeruginosa; assay: Antimicrobial activity against carbapenem-resistant Pseudomonas aeruginosa isolated from ICU patient respiratory tract assessed as resistant isolates by broth microdilution method
[30] = system: Staphylococcus epidermidis; assay: Antimicrobial activity against methicillin-susceptible Staphylococcus epidermidis isolated from ICU patient respiratory tract assessed as resistant isolates by broth microdilution method
[31] = system: Escherichia coli; assay: Antimicrobial activity against CTX-M ESBL producing Escherichia coli isolated from ICU patient respiratory tract assessed as resistant isolates by broth microdilution method
[32] = system: Pseudomonas aeruginosa; assay: Antimicrobial activity against carbapenem-resistant Pseudomonas aeruginosa isolated from ICU patient blood assessed as resistant isolates by broth microdilution method
[33] = system: Pseudomonas aeruginosa; assay: Antimicrobial activity against carbapenem-resistant Pseudomonas aeruginosa assessed as resistant isolates by broth microdilution method
[34] = system: Pseudomonas aeruginosa; assay: Antimicrobial activity against carbapenem-resistant Pseudomonas aeruginosa isolated from ICU patient urine assessed as resistant isolates by broth microdilution method
[35] = system: Streptococcus pneumoniae; assay: Antimicrobial activity against penicillin-resistant Streptococcus pneumoniae assessed as resistant isolates by broth microdilution method
[36] = system: Streptococcus pneumoniae; assay: Antimicrobial activity against penicillin-resistant Streptococcus pneumoniae isolated from ICU patient blood assessed as resistant isolates by broth microdilution method
[37] = system: Streptococcus pneumoniae; assay: Antimicrobial activity against penicillin-resistant Streptococcus pneumoniae isolated from ICU patient wound assessed as resistant isolates by broth microdilution method
[38] = system: Streptococcus pneumoniae; assay: Antimicrobial activity against penicillin-resistant Streptococcus pneumoniae isolated from ICU patient respiratory tract assessed as resistant isolates by broth microdilution method

SMILES | Activity [1] [%] | Activity [2] [%] | Activity [4] [%] | Activity [5] [%] | Activity [6] [%] | Activity [9] [%] | Activity [11] [%] | Activity [12] [%] | Activity [13] [%] | Activity [15] [%] | Activity [16] [%] | Activity [17] [%] | Activity [18] [%] | Activity [19] [%] | Activity [20] [%] | Activity [21] [%] | Activity [22] [%] | Activity [23] [%] | Activity [35] [%] | Activity [36] [%] | other results
CCCCCCCCCC(=O)N[C@@H](Cc1c[nH]c2ccccc12)C(=O)N[C@H](CC(N)=O)C(=O)N[C@@H](CC(=O)O)C(=O)N[C@@H]1C(=O)NCC(=O)N[C@@H](CCCN)C(=O)N[C@@H](CC(=O)O)C(=O)N[C@H](C)C(=O)N[C@@H](CC(=O)O)C(=O)NCC(=O)N[C@H](CO)C(=O)N[C@@H]([C@H](C)CC(=O)O)C(=O)N[C@@H](CC(=O)c2ccccc2N)C(=O)O[C@@H]1C | 0 | 0 | 0 | 0 | 0 | 0 | 0 | 0 | 0 | 0 | 0 | 0 | 0 | 0 | 0 | 0 | 0 | 0 | – | – | Activity [3]: 0%; Activity [7]: 0%; Activity [8]: 0%; Activity [10]: 0%; Activity [14]: 0%
Cc1nnc(SCC2=C(C(=O)O)N3C(=O)[C@@H](NC(=O)Cn4cnnn4)[C@H]3SC2)s1 [CEFAZOLIN] | 0 | 100 | 100 | 100 | 100 | 0 | 0 | 100 | 0 | 0 | 100 | 0 | 100 | 100 | 0 | 0 | 100 | 0 | – | – | Activity [24]: 8.6%; Activity [25]: 25.8%; Activity [26]: 21.9%; Activity [27]: 20.1%; Activity [28]: 7.7%; Activity [29]: 4.9%; Activity [30]: 0%; Activity [31]: 11.5%; Activity [32]: 7.7%; Activity [33]: 6.2%; Activity [34]: 7.8%
CC[C@H]1OC(=O)[C@H](C)[C@@H](O[C@H]2C[C@@](C)(OC)[C@@H](O)[C@H](C)O2)[C@H](C)[C@@H](O[C@@H]2O[C@H](C)C[C@H](N(C)C)[C@H]2O)[C@](C)(OC)C[C@@H](C)C(=O)[C@H](C)[C@@H](O)[C@]1(C)O [CLARITHROMYCIN] | 19.5 | 100 | 94.1 | 100 | – | 16.1 | 23.9 | 100 | 100 | 77.4 | 96 | 20.1 | – | – | 30 | 79.2 | – | 74.6 | 15.9 | 13.2 | Activity [3]: 70.1%; Activity [7]: 61.5%; Activity [8]: 60.3%; Activity [10]: 68.6%; Activity [37]: 16.7%; Activity [14]: 65.9%; Activity [38]: 16.4%
CCC[C@@H]1C[C@@H](C(=O)N[C@@H]([C@H]2O[C@H](SC)[C@H](O)[C@@H](O)[C@H]2O)[C@H](C)Cl)N(C)C1 [CLINDAMYCIN] | 4.3 | 100 | 88.2 | 100 | 72.9 | 4.6 | 3.5 | 100 | 100 | 54.8 | 92 | 4.4 | 79.6 | 81.5 | 10 | 70.8 | 76.1 | 43.6 | 5.6 | 2.6 | Activity [37]: 0%; Activity [38]: 6.4%
CC(=O)NC[C@H]1CN(c2ccc(N3CCOCC3)c(F)c2)C(=O)O1 [LINEZOLID] | 0 | 0 | 0 | 0 | 0 | 0 | 0 | 0 | 0 | 0 | 0 | 0 | 0 | 0 | 0 | 0 | 0 | 0 | 0 | 0 | Activity [3]: 1.5%; Activity [7]: 0%; Activity [8]: 1.6%; Activity [10]: 2.9%; Activity [37]: 0%; Activity [14]: 1.8%; Activity [38]: 0%
COc1c(N2C[C@@H]3CCCN[C@@H]3C2)c(F)cc2c(=O)c(C(=O)O)cn(C3CC3)c12 [MOXIFLOXACIN] | 5.8 | 100 | 100 | 100 | 91.5 | 6.9 | 7.1 | 83.3 | 80 | 41.7 | 96 | 6.4 | 89.8 | 88.9 | 15 | 50 | 90.1 | 34.6 | 1.3 | 0 | Activity [37]: 0%; Activity [38]: 1.6%
CN[C@H](CC(C)C)C(=O)N[C@H]1C(=O)N[C@@H](CC(N)=O)C(=O)N[C@H]2C(=O)N[C@H]3C(=O)N[C@H](C(=O)N[C@H](C(=O)O)c4cc(O)cc(O)c4-c4cc3ccc4O)[C@H](O)c3ccc(c(Cl)c3)Oc3cc2cc(c3O[C@@H]2O[C@H](CO)[C@@H](O)[C@H](O)[C@H]2O[C@H]2C[C@](C)(N)[C@H](O)[C@H](C)O2)Oc2ccc(cc2Cl)[C@H]1O [VANCOMYCIN] | 0 | 0 | 0 | 0 | 0 | 0 | 0 | 0 | 0 | 0 | 0 | 0 | 0 | 0 | 0 | 0 | 0 | 0 | 0 | 0 | Activity [3]: 4%; Activity [7]: 3.3%; Activity [8]: 12.5%; Activity [10]: 5.4%; Activity [37]: 0%; Activity [14]: 6.8%; Activity [30]: 0%; Activity [38]: 0%
